The source of these data is ChEMBL document CHEMBL1132675, “New pyrrole derivatives as antimycobacterial agents analogs of BM212” (1999).

Each structure is given as a SMILES string. Converted amounts (≈) assume the structure as drawn. The source made the active and inactive calls.

Test [1] relates to Candida. The test is described as follows: Compound was tested for activity against Candida sp; Inactive. The class given is functional, organism-based.
The test system of test [2] is Candida albicans. The experiment in a line: Compound was tested for activity against Candida albicans; Inactive. The format is functional, organism-based.
Test [3] has as its system Mycobacterium avium. The test is described as follows: In vitro antibacterial activity against Mycobacterium avium 103317. The class given is functional.
In test [4] the test system is Mycobacterium gordonae. The experiment in a line: In vitro antibacterial activity against Mycobacterium gordonae 6427. The format is functional.
In test [5] the test system is Mycobacterium marinum. The test is described as follows: In vitro antibacterial activity against Mycobacterium marinum 6423. The format is functional.
Test [6] relates to Mycobacterium tuberculosis. The experiment in a line: In vitro antibacterial activity against Mycobacterium tuberculosis 103471. The format is functional.
Test [7] concerns Mycolicibacterium smegmatis. The test is described as follows: In vitro antibacterial activity against Mycobacterium smegmatis 103599. The class given is functional.
Test [8] deals with Vero. The experiment in a line: In vitro cytotoxicity against vero cells. The class given is functional, Chlorocebus sabaeus.
Test [9] concerns Mycobacterium gordonae. The test is described as follows: In vitro antibacterial activity agains Mycobacterium gordonae 6427. The format is functional.

`Cc1c(CN2CCSCC2)cc(-c2ccccc2)n1-c1ccc(Cl)cc1`: the MIC entry in test [1] and in test [2] was “inactive” throughout. Moreover, the minimal inhibitory concentration (MIC) (usually the smallest concentration in the dilution series that meets the test's criterion for growth inhibition) was 16 µg/mL (≈ 41.8 µM) in test [3]; > 16 µg/mL in test [4]; 8 µg/mL (≈ 20.9 µM) in test [5]; 2 µg/mL (≈ 5.22 µM) in test [6]; 16 µg/mL (≈ 41.8 µM) in test [7]. The same compound registered an MTD50 in test [8] of 8 µg/mL.

Consider `CO[C@H]1/C=C/O[C@@]2(C)Oc3c(C)c(O)c4c(O)c(c(/C=N/N5CCN(C)CC5)c(O)c4c3C2=O)NC(=O)/C(C)=C\C=C\[C@H](C)[C@H](O)[C@@H](C)[C@@H](O)[C@@H](C)[C@H](OC(C)=O)[C@@H]1C` [RIFAMPIN], for which the MIC in test [3] amounted to 0.3 µg/mL (≈ 0.365 µM); in test [4], 0.6 µg/mL (≈ 0.729 µM); in test [5], 0.6 µg/mL (≈ 0.729 µM); in test [6], 0.3 µg/mL (≈ 0.365 µM); in [7], 32 µg/mL (≈ 38.9 µM). In addition, the MTD50 in [8] stood at 64 µg/mL.

With `CN[C@@H]1[C@H](O[C@H]2[C@H](O[C@H]3[C@H](O)[C@@H](O)[C@H](N=C(N)N)[C@@H](O)[C@@H]3N=C(N)N)O[C@@H](C)[C@]2(O)C=O)O[C@@H](CO)[C@H](O)[C@H]1O` [STREPTOMYCIN], the MIC amounted to 8 µg/mL (≈ 13.8 µM) in test [3]; 16 µg/mL (≈ 27.5 µM) in [4]; 32 µg/mL (≈ 55 µM) in [5]; 0.5 µg/mL (≈ 0.86 µM) in [6]; 8 µg/mL (≈ 13.8 µM) in test [7]. The MTD50 in test [8] is >64 µg/mL.

For `NNC(=O)c1ccncc1` [ISONIAZID], the minimal inhibitory concentration (MIC) in test [3] was 32 µg/mL (≈ 233 µM); in [4], 32 µg/mL (≈ 233 µM); in [5], 16 µg/mL (≈ 117 µM); in test [6] it was 0.25 µg/mL (≈ 1.82 µM); in test [7], 64 µg/mL (≈ 467 µM). This compound also yielded an MTD50 in test [8] of 32 µg/mL.

`Cc1c(CN2CCSCC2)cc(-c2ccc(Cl)cc2)n1-c1ccccc1`: the MIC result in test [1] and in test [2] was “inactive” throughout. Further, the minimal inhibitory concentration (MIC) in test [3] is > 16 µg/mL; in [4], > 16 µg/mL; in [5], > 16 µg/mL; in test [6], 2 µg/mL (≈ 5.22 µM); in test [7] it was > 16 µg/mL. The compound further registered an MTD50 in test [8] of 4 µg/mL.

For the compound `Cc1c(CN2CCN(C)CC2)cc(-c2ccc(Cl)cc2)n1-c1ccc(Cl)cc1`, the MIC was 0.4 µg/mL (≈ 0.965 µM) in test [3]; > 100 µg/mL in test [9]; 100 µg/mL (≈ 241 µM) in test [5]; 0.7 µg/mL (≈ 1.69 µM) in test [6]; 25 µg/mL (≈ 60.3 µM) in test [7]. Moreover, in [8], the MTD50 came to 4 µg/mL.

As to `Cc1c(CN2CCN(C)CC2)cc(-c2ccc(Cl)cc2)n1-c1ccccc1`, the MIC entry in test [1] and in test [2] was “inactive” each time. The MIC was 16 µg/mL (≈ 42.1 µM) in test [3]; 16 µg/mL (≈ 42.1 µM) in test [4]; 16 µg/mL (≈ 42.1 µM) in test [5]; 4 µg/mL (≈ 10.5 µM) in test [6]; 8 µg/mL (≈ 21.1 µM) in [7]. In test [8], this compound had an MTD50 of 4 µg/mL.

`Cc1c(CN2CCN(C)CC2)cc(-c2ccccc2)n1-c1ccc(Cl)cc1`: the MIC result in test [1] and in test [2] was “inactive” in each case. Moreover, the MIC in [3] is 16 µg/mL (≈ 42.1 µM); in [4], 8 µg/mL (≈ 21.1 µM); in test [5] it was 1 µg/mL (≈ 2.63 µM); in test [6] it was 4 µg/mL (≈ 10.5 µM); in [7] it was 8 µg/mL (≈ 21.1 µM). The compound further displayed an MTD50 in test [8] of 4 µg/mL.

Take `Cc1c(CN2CCSCC2)cc(-c2ccc(Cl)cc2)n1-c1ccc(Cl)cc1`: the MIC entry in [1] and in test [2] was “inactive” in each case. Further, the MIC in test [3] was > 16 µg/mL; in [4], > 16 µg/mL; in test [5], > 16 µg/mL; in test [6] it was 4 µg/mL (≈ 9.58 µM); in test [7], > 16 µg/mL. The MTD50 in test [8] amounted to 32 µg/mL.
